Laboratory results: patent EP3436445B1, “HISTONE DEMETHYLASE INHIBITORS” (Celgene Quanticel Research, Inc., priority 2016, dated 2017)
Values belong to the compound of their own block, whether it stands above or below them.

Tests used:
[1] = molecular target: T1, Jarid1B (Homo sapiens, UniProt Q9UGL1); assay: Jarid1B in vitro enzyme inhibition assay (TR-FRET); assay type: biochemical; conditions: Table 5; 0.8 nM Jarid1B, H3K4me3-biotin labeled peptide; read-out: JARID1B IC5
T1 construct: purchased BPS Bioscience (or custom made by MolecularThroughput) 50121
T1 sequence (Q9UGL1 2-751): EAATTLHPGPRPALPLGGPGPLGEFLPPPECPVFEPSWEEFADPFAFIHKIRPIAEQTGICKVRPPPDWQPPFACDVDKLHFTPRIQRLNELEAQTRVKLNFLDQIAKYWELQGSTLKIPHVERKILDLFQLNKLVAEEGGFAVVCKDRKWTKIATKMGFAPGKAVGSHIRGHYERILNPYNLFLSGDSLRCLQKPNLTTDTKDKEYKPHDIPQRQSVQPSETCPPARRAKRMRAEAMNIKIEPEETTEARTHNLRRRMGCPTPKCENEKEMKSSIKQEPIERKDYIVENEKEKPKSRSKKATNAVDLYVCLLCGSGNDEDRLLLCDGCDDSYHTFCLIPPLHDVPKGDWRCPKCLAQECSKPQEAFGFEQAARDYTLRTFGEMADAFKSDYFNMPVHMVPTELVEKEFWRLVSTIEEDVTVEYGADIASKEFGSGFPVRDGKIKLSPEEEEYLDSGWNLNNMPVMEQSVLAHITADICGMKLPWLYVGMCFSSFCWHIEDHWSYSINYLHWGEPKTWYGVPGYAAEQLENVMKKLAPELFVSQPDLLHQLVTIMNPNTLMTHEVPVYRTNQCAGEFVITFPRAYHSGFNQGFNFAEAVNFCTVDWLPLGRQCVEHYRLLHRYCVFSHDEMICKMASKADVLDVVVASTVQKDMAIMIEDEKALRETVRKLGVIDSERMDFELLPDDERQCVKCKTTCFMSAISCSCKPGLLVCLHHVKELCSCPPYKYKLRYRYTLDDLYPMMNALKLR
Source text: (§1) This assay determines the ability of a test compound to inhibit Jarid1B, JMJD2C and JMJD3 demethylase activity. Baculovirus expressed Jarid1B (GenBank Accession #NM-006618, AA 2-751) was purchased from BPS Bioscience (Cat #50121) or custom made by MolecularThroughput. Baculovirus expressed JMJD2C (GenBank Accession #BC143571, AA 2-372) was purchased from BPS Bioscience (Cat#50105). Baculovirus expressed JMJD3 (GenBank Accession #NM-001080424, AA1043-end) was purchased from BPS Bioscience (Cat#50115).
The ability of test compounds to inhibit the activity of Jarid1B was determined in 384-well plate format under the following reaction conditions: 0.8 nM Jarid1B, 300 nM H3K4me3-biotin labeled peptide (Anaspec cat #64357), 2 µM alpha-ketoglutaric acid in assay buffer of 50 mM HEPES, pH7.3, 0.005% Brij35, 0.5 mM TCEP, 0.2 mg/ml BSA, 50 µM sodium L-ascorbate, and 2 µM ammonium iron(II) sulfate. Reaction product was determined quantitatively by TR-FRET after the addition of detection reagent Phycolink Streptavidin-allophycocyanin (Prozyme) and Europium-anti-mono-or di-methylated histone H3 lysine 4 (H3K4me1-2) antibody (PerkinElmer) in the presence of 5 mM EDTA in LANCE detection buffer (PerkinElmer) at a final concentration of 25 nM and 1 nM, respectively.
The assay reaction was initiated by the following: 2 µl of the mixture of 900 nM H3K4me3-biotin labeled peptide and 6 µM alpha-ketoglutaric acid with 2 µl of 11-point serial diluted inhibitor in 3% DMSO was added to each well of the plate, followed by the addition of 2 µl of 2.4 nM Jarid1B to initiate the reaction. The reaction mixture was incubated at room temperature for 30 minutes, and terminated by the addition of 6 µl of 5 mM EDTA in LANCE detection buffer containing 50 nM Phycolink Streptavidin-allophycocyanin and 2 nM Europium-anti-H3K4me1-2 antibody. Plates were read by EnVisionMultilabel Reader in TR-FRET mode (excitation at 320 nm, emission at 615 nm and 665 nm) after 1 hour incubation at room temperature. A ratio was calculated (665/615) for each well and fitted to determine inhibition constant (IC50).

[2] = molecular target: T2, JMJD3 (Homo sapiens, UniProt O15054); assay: JMJD3 in vitro enzyme inhibition assay (AlphaScreen); assay type: biochemical; conditions: Table 5; 1 nM JMJD3, H3K27me3-biotin labeled peptide
T2 construct: purchased BPS Bioscience 50115
Source text: as §1
The ability of test compounds to inhibit the activity of JMJD3 was determined in 384-well plate format under the following reaction conditions: 1 nM JMJD3, 250 nM H3K27me3-biotin labeled peptide (Anaspec cat # 64367), 1 µM alpha-ketoglutaric acid in assay buffer of 50 mM HEPES, pH7.3, 0.005% Brij35, 0.5 mM TCEP, 0.2 mg/ml BSA, 50 µM sodium L-ascorbate, 5 µM ammonium iron(II) sulfate. Reaction product is determined quantitatively by AlphaScreen detection after the addition of detection reagents anti-H3K27me1 antibody, 5 µg/ml AlphaScreen® Streptavidin-coated Donor beads, and 5 µg/ml AlphaScreen® Protein A Acceptor beads in 50 mM HEPES, pH7.3, 10 mM NaCl, 0.005% Brij35, 10 mM EDTA, 2 mg/ml BSA.
The assay reaction was initiated by the following: 3 µl of the mixture of 750 nM H3K27me3-biotin labeled peptide and 3 µM alpha-ketoglutaric acid with 3 µl of 11-point serial diluted inhibitor in 3% DMSO are added to each well of 384 well Proxiplate (Perkin Elmer), followed by the addition of 3 µl of 3 nM JMJD3 to initiate the reaction. The reaction mixture is incubated at room temperature for 20 minutes, and terminated by the addition of 3 µl of appropriate dilution of anti H3K27me1 antibody in 50 mM HEPES, pH7.3, 10 mM NaCl, 0.005% Brij35, 10 mM EDTA, 2 mg/ml BSA. Plates will then incubated at room temperature for 1 hour, followed by addition of 3 µl of 25 µg/ml AlphaScreen® Streptavidin-coated Donor beads and AlphaScreen® Protein A Acceptor beads in 50 mM HEPES, pH7.3, 10 mM NaCl, 0.005% Brij35, 10 mM EDTA, 2 mg/ml BSA. Plates will then be read by EnVision Multilabel Reader in AlphaScreen mode after minimum 2 hour incubation at room temperature. The AlphaScreen signal for each well is used to determine inhibition constant (IC50).

T2 sequence (O15054 1043-1682 isoform O15054-1): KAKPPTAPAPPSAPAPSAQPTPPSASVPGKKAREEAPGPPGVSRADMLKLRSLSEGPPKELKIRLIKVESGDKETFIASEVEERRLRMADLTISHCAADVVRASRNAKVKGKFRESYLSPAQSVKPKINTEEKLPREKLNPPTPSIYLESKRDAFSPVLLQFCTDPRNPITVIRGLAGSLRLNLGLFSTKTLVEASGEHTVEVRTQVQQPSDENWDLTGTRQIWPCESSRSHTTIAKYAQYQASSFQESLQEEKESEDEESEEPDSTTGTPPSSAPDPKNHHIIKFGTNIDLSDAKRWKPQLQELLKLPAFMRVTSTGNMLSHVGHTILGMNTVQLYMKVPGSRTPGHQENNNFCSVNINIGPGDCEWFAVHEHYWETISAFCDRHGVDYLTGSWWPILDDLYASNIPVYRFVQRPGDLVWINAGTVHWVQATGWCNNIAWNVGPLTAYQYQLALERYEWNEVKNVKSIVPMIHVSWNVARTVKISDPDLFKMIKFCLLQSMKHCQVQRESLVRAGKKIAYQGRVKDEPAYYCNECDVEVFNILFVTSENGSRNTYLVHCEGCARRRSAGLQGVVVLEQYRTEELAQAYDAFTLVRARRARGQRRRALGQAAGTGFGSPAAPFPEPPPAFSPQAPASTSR

SMILES: Fc1ccc(Cn2cnc(-c3cc(-c4nn[nH]c4C(F)(F)F)ccn3)c2)cc1 [Example 61, 2-{1-[(4-fluorophenyl)methyl]-1H-imidazol-4-yl}-4-[5-(trifluoromethyl)-1H-1,2,3-triazol-4-yl]pyridine]
IC50 [1]: 100 to 1000 nM | IC50 [2]: > 10000 nM

SMILES: Cc1ccc2c(c1)C(Cn1cnc(-c3cc(-c4nn[nH]c4C(F)(F)F)ccn3)c1)CCC2 (centres unmarked) [Example 103, 2-{1-[(7-methyl-1,2,3,4-tetrahydronaphthalen-1-yl)methyl]-1H-imidazol-4-yl}-4-[5-(trifluoromethyl)-1H-1,2,3-triazol-4-yl]pyridine]
IC50 [1]: ≤ 100 nM | IC50 [2]: > 10000 nM

SMILES: CC(C)(C)c1ccc(CCn2cnc(-c3cc(-c4nn[nH]c4C(F)(F)F)ccn3)c2)cc1 [Example 96, 2-{1-[2-(4-tert-butylphenyl)ethyl]-1H-imidazol-4-yl}-4-[5-(trifluoromethyl)-1H-1,2,3-triazol-4-yl]pyridine]
IC50 [1]: 100 to 1000 nM | IC50 [2]: > 10000 nM

SMILES: FC(F)(F)c1[nH]nnc1-c1ccnc(-c2cn(CC3CCCc4ccccc43)cn2)c1 (centres unmarked) [Example 58, 2-{1-[(1,2,3,4-tetrahydronaphthalen-1-yl)methyl]-1H-imidazol-4-yl}-4-[5-(trifluoromethyl)-1H-1,2,3-triazol-4-yl]pyridine]
IC50 [1]: ≤ 100 nM | IC50 [2]: > 10000 nM

SMILES: FC(F)(F)c1[nH]nnc1-c1ccnc(-c2cn(Cc3ccc(Cl)cc3)cn2)c1 [Example 63, 2-{1-[(4-chlorophenyl)methyl]-1H-imidazol-4-yl}-4-[5-(trifluoromethyl)-1H-1,2,3-triazol-4-yl]pyridine]
IC50 [1]: 100 to 1000 nM | IC50 [2]: > 10000 nM

SMILES: COc1ccc2c(c1)CCCC2Cn1cnc(-c2cc(-c3nn[nH]c3C(F)(F)F)ccn2)c1 (centres unmarked) [Example 105, 2-{1-[(6-methoxy-1,2,3,4-tetrahydronaphthalen-1-yl)methyl]-1H-imidazol-4-yl}-4-[5-(trifluoromethyl)-1H-1,2,3-triazol-4-yl]pyridine]
IC50 [1]: 100 to 1000 nM | IC50 [2]: > 10000 nM

Now from value to compound:

IC50 [1]: ≤ 100 nM | IC50 [2]: > 10000 nM
SMILES: Fc1cc(F)c(CCn2cnc(-c3cc(-c4nn[nH]c4C(F)(F)F)ccn3)c2)cc1F [Example 81, 4-[5-(trifluoromethyl)-1H-1,2,3-triazol-4-yl]-2-{1-[2-(2,4,5-trifluorophenyl)ethyl]-1H-imidazol-4-yl}pyridine]

IC50 [1]: ≤ 100 nM | IC50 [2]: > 10000 nM
SMILES: COc1ccc(CCn2cnc(-c3cc(-c4nn[nH]c4C(F)(F)F)ccn3)c2)cc1 [Example 93, 2-{1-[2-(4-methoxyphenyl)ethyl]-1H-imidazol-4-yl}-4-[5-(trifluoromethyl)-1H-1,2,3-triazol-4-yl]pyridine]

IC50 [1]: 100 to 1000 nM | IC50 [2]: > 10000 nM
SMILES: Fc1cc(F)c(CCn2cnc(-c3cc(-c4nn[nH]c4C(F)(F)F)ccn3)c2)c(F)c1 [Example 82, 4-[5-(trifluoromethyl)-1H-1,2,3-triazol-4-yl]-2-{1-[2-(2,4,6-trifluorophenyl)ethyl]-1H-imidazol-4-yl}pyridine]

IC50 [1]: 100 to 1000 nM | IC50 [2]: > 10000 nM
SMILES: Cc1ccc(CCn2cnc(-c3cc(-c4nn[nH]c4C(F)(F)F)ccn3)c2)cc1 [Example 91, 2-{1-[2-(4-methylphenyl)ethyl]-1H-imidazol-4-yl}-4-[5-(trifluoromethyl)-1H-1,2,3-triazol-4-yl]pyridine]

IC50 [1]: 100 to 1000 nM | IC50 [2]: > 10000 nM
SMILES: Cc1ccc(Cn2cnc(-c3cc(-c4nn[nH]c4C(F)(F)F)ccn3)c2)c(F)c1 [Example 71, 2-{1-[(2-fluoro-4-methylphenyl)methyl]-1H-imidazol-4-yl}-4-[5-(trifluoromethyl)-1H-1,2,3-triazol-4-yl]pyridine]

IC50 [1]: 100 to 1000 nM | IC50 [2]: > 10000 nM
SMILES: Fc1cccc(Cl)c1CCn1cnc(-c2cc(-c3nn[nH]c3C(F)(F)F)ccn2)c1 [Example 80, 2-{1-[2-(2-chloro-6-fluorophenyl)ethyl]-1H-imidazol-4-yl}-4-[5-(trifluoromethyl)-1H-1,2,3-triazol-4-yl]pyridine]

IC50 [1]: ≤ 100 nM | IC50 [2]: 1000 to 10000 nM
SMILES: Fc1cccc(CCn2cnc(-c3cc(-c4nn[nH]c4C(F)(F)F)ccn3)c2)c1 [Example 78, 2-{1-[2-(3-fluorophenyl)ethyl]-1H-imidazol-4-yl}-4-[5-(trifluoromethyl)-1H-1,2,3-triazol-4-yl]pyridine]
